Measurements from US9963474B2, “Mitochondria-targeted dicarbonyl sequestering compounds” (MEDICAL RESEARCH COUNCIL, priority 2013, dated 2018).

Assay: Reaction rate with glyoxal (fluorometric kinetics)
Conditions: 37° C., means±SE, n=3
Experimental: (A) The reactions between MitoG (100 μM) and 1,2-dicarbonyls (25 μM) at 37° C. were followed from the formation of the quinoxaline products at 345 nm. (B) Fluorimetric detection of the reaction between MitoG and methylglyoxal (40 μM each), and between MitoG and glyoxal (200 μM each) was observed by monitoring the quinoxaline products at excitation and emission wavelengths of 344 and 433 nm, respectively. The changes in fluorescence caused by MQE and QE formation was quantified from calibration curves constructed by plotting fluorescence (excitation and emission wavelengths of 344 and 433 nm, respectively) against known amounts of either quinoxaline and were linear up to at least 20 μM.
TPP-conjugated compounds were made up as 10 mM stock solutions in DMSO, flushed with argon and stored as aliquots at −20° C. […] The molar extinction coefficients were calculated from the absorbance at maximal absorption (λmax) for the compounds for solutions of known concentration. Reaction rates between MitoG and 1,2-dicarbonyls were determined from the initial linear slope over the first 30 s at the λmax for the formation of the relevant quinoxaline. Fluorescence spectra were obtained in 2.5 ml KCl buffer using a Shimadzu RF-301PC fluorimeter with slit widths of 3 nm. […]

Structure (SMILES): Nc1ccc(OCCCCCC[P+](c2ccccc2)(c2ccccc2)c2ccccc2)cc1N [MitoG, (6-(3,4-Diaminophenoxy)hexyl)triphenylphosphonium chloride]
- rate constant for reaction with glyoxal: 0.6 ± 0.3 M⁻¹ s⁻¹
